77 sequences from the supplement of paper PMC11208160 can be followed below.
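Also: IS621 recombinase and bridge RNA in Escherichia coli cells.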

The nature of this data set: recombinant barcode read abundance after kanamycin selection (control-corrected) (log10(CPM+1)); higher = more efficient recombination; sequences stand for … in AGTGCAGAGAAAATCGGCCAGTTTTCTCTGCCTGCAGTCCGCATGCCGT…AGATTTATGCAGCGGACTGCCTTTCTCCCAAAGTGATAAACCGGACAGTATCATGGACCGGTTTTCCCGGTAATCCGTATTTGCAAGGTTGGTTTCACT; site = the 11-nt target. The gist of the method:
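Duplicate cultures were plated either on chloramphenicol/ampicillin LB agar, serving as control, or on chloramphenicol/ampicillin/kanamycin with 0.1 mM IPTG. These came from a pooled E. coli library co-electroporated with a donor plasmid, each member pairing a target with an IS621 bridge RNA target-binding loop. Recombination efficiency equals averaged, control-corrected counts per million of recombinant-junction barcodes. It is listed as log10(CPM+1).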
With “TTAGACTCTTGGGTTCTAACCTGTTGCTA (site TTAGACTCTTG)”, the “recombinant barcode read abundance (log10)” value was determined as 1.25.

“TTAGAGACTTGGGTTCTAACCTGTTGCCT (site TTAGAGACTAG)”: the “recombinant barcode read abundance (log10)” value came to 2.32.

For “TTAGAGACTTGGGTTCTAACCTGTTGCCT (site TTAGAGCCTAG)”, the “recombinant barcode read abundance (log10)” value was 0.303.

For “TTAGAGACTTGGGTTCTAACCTGTTGCCT (site TTAGAGGCTAG)”, the “recombinant barcode read abundance (log10)” value came out at 1.4.

Regarding “TTAGAGACTTGGGTTCTAACCTGTTGCCT (site TTAGAGTCTAG)”, the “recombinant barcode read abundance (log10)” value was 0.195.

As to “TTAGATCCTTGGGTTCTAACCTGTTGCAT (site TTAGATCCTAT)”, the “recombinant barcode read abundance (log10)” value was determined as 1.62.

Take “TTAGATCCTTGGGTTCTAACCTGTTGCAT (site TTAGGTCCTCT)”: the “recombinant barcode read abundance (log10)” value was determined as 0.00789.

Take “TTAGGGCCTTGGGTTCTAACCTGTTGCCT (site TTAGGGACTAG)”: the “recombinant barcode read abundance (log10)” value turned out to be 0.0406.

For the sequence “TTAGGGCCTTGGGTTCTAACCTGTTGCCT (site TTAGGGCCTAG)”, the “recombinant barcode read abundance (log10)” value came out at 0.719.

For “TTAGGGCCTTGGGTTCTAACCTGTTGCCT (site TTAGGGGCTAG)”, the “recombinant barcode read abundance (log10)” value was found to be 0.0469.

For the sequence “TTAGGGCCTTGGGTTCTAACCTGTTGCCT (site TTAGGGTCTAG)”, the “recombinant barcode read abundance (log10)” value amounted to 0.0494.

Regarding “TTAGGTCCTTGGGTTCTAACCTGTTGCTT (site TTAAGTCCTAT)”, the “recombinant barcode read abundance (log10)” value was 0.357.

“TTAGGTCCTTGGGTTCTAACCTGTTGCTT (site TTAGGTCCTAA)”: the “recombinant barcode read abundance (log10)” value turned out to be 1.64.

For the sequence “TTAGTAGCTTGGGTTCTAACCTGTTGCCT (site TTAGTAGCTAG)”, the “recombinant barcode read abundance (log10)” value was found to be 1.84.

As to “TTAGTAGCTTGGGTTCTAACCTGTTGCCT (site TTAGTCGCTAG)”, the “recombinant barcode read abundance (log10)” value came to 0.0769.

As to “TTAGTAGCTTGGGTTCTAACCTGTTGCCT (site TTAGTGGCTAG)”, the “recombinant barcode read abundance (log10)” value turned out to be 0.0632.

On to “TTAGTAGCTTGGGTTCTAACCTGTTGCCT (site TTAGTTGCTAG)”, for which the “recombinant barcode read abundance (log10)” value came out at 0.0874.

On to “TTAGTCCCTTGGGTTCTAACCTGTTGCCT (site TTAGTACCTAG)”, for which the “recombinant barcode read abundance (log10)” value turned out to be 0.113.

For “TTAGTCCCTTGGGTTCTAACCTGTTGCCT (site TTAGTCCCTAG)”, the “recombinant barcode read abundance (log10)” value is 2.42.

Consider “TTAGTCCCTTGGGTTCTAACCTGTTGCCT (site TTAGTGCCTAG)”, for which the “recombinant barcode read abundance (log10)” value was determined as 0.202.

As for “TTAGTCCCTTGGGTTCTAACCTGTTGCCT (site TTAGTTCCTAG)”, the “recombinant barcode read abundance (log10)” value amounted to 0.0847.

As for “TTAGTGGCTTGGGTTCTAACCTGTTGCCT (site TTAGTAGCTAG)”, the “recombinant barcode read abundance (log10)” value was 0.607.

On to “TTAGTGGCTTGGGTTCTAACCTGTTGCCT (site TTAGTCGCTAG)”, for which the “recombinant barcode read abundance (log10)” value was determined as 0.0499.

Regarding “TTAGTGGCTTGGGTTCTAACCTGTTGCCT (site TTAGTGGCTAG)”, the “recombinant barcode read abundance (log10)” value is 0.978.

On to “TTAGTGGCTTGGGTTCTAACCTGTTGCCT (site TTAGTTGCTAG)”, for which the “recombinant barcode read abundance (log10)” value was determined as 0.0338.

“TTATCCGCTTGGGTTCTAACCTGTTGCCT (site CGTAGACCTTA)”: the “recombinant barcode read abundance (log10)” value came out at 0.0341.

Turning to “TTATCCGCTTGGGTTCTAACCTGTTGCCT (site TTATCCGCTAG)”, the “recombinant barcode read abundance (log10)” value worked out at 1.77.

Consider “TTATCTCCTTGGGTTCTAACCTGTTGCTT (site TCGTCTCCTAA)”, for which the “recombinant barcode read abundance (log10)” value is 0.0381.

Regarding “TTATCTCCTTGGGTTCTAACCTGTTGCTT (site TTATCTCCTAA)”, the “recombinant barcode read abundance (log10)” value is 0.205.

With “TTCAAAACTTGGGTTCTAACCTGTTGCCT (site TTCAAAACTAG)”, the “recombinant barcode read abundance (log10)” value came out at 0.103.

In the case of “TTCAAAACTTGGGTTCTAACCTGTTGCCT (site TTCAAACCTAG)”, the “recombinant barcode read abundance (log10)” value was found to be 0.0651.

“TTCAAAACTTGGGTTCTAACCTGTTGCCT (site TTCAAAGCTAG)”: the “recombinant barcode read abundance (log10)” value was 0.0504.

In the case of “TTCAAAACTTGGGTTCTAACCTGTTGCCT (site TTCAAATCTAG)”, the “recombinant barcode read abundance (log10)” value stood at 0.0229.

Take “TTCAAAGCTTGGGTTCTAACCTGTTGCCT (site TTCAAAACTAG)”: the “recombinant barcode read abundance (log10)” value is 0.0225.

For “TTCAAAGCTTGGGTTCTAACCTGTTGCCT (site TTCAAACCTAG)”, the “recombinant barcode read abundance (log10)” value turned out to be 0.0449.

In the case of “TTCAAAGCTTGGGTTCTAACCTGTTGCCT (site TTCAAAGCTAG)”, the “recombinant barcode read abundance (log10)” value is 0.0407.

In the case of “TTCAAAGCTTGGGTTCTAACCTGTTGCCT (site TTCAAATCTAG)”, the “recombinant barcode read abundance (log10)” value is 0.0721.

Turning to “TTCACAGCTTGGGTTCTAACCTGTTGCCT (site TTCACACCTAG)”, the “recombinant barcode read abundance (log10)” value was found to be 0.0537.

With “TTCACAGCTTGGGTTCTAACCTGTTGCCT (site TTCACAGCTAG)”, the “recombinant barcode read abundance (log10)” value is 0.133.

As to “TTCACGCCTTGGGTTCTAACCTGTTGCCT (site TTCACGCCTAG)”, the “recombinant barcode read abundance (log10)” value amounted to 0.187.

On to “TTCACGCCTTGGGTTCTAACCTGTTGCCT (site TTCCCGCCTAG)”, for which the “recombinant barcode read abundance (log10)” value is 0.127.

Consider “TTCACGCCTTGGGTTCTAACCTGTTGCCT (site TTCGCGCCTAG)”, for which the “recombinant barcode read abundance (log10)” value worked out at 0.0353.

Regarding “TTCACGCCTTGGGTTCTAACCTGTTGCCT (site TTCTCGCCTAG)”, the “recombinant barcode read abundance (log10)” value amounted to 0.214.

Regarding “TTCACGGCTTGGGTTCTAACCTGTTGCCT (site TTAACGGCTAG)”, the “recombinant barcode read abundance (log10)” value was determined as 0.223.

Regarding “TTCACGGCTTGGGTTCTAACCTGTTGCCT (site TTCACGGCTAG)”, the “recombinant barcode read abundance (log10)” value is 0.0164.

With “TTCCAATCTTGGGTTCTAACCTGTTGCCA (site TGCCAATCTAG)”, the “recombinant barcode read abundance (log10)” value was found to be 0.0654.

For “TTCCAATCTTGGGTTCTAACCTGTTGCCA (site TTCCAATCTTG)”, the “recombinant barcode read abundance (log10)” value is 0.713.

Take “TTCCCCACTTGGGTTCTAACCTGTTGCCT (site AATATAGCTTA)”: the “recombinant barcode read abundance (log10)” value was 0.115.

As for “TTCCCCACTTGGGTTCTAACCTGTTGCCT (site TTCCCCACTAG)”, the “recombinant barcode read abundance (log10)” value was 1.11.

For “TTCCCGCCTTGGGTTCTAACCTGTTGCCT (site TTCACGCCTAG)”, the “recombinant barcode read abundance (log10)” value amounted to 0.0618.

Turning to “TTCCCGCCTTGGGTTCTAACCTGTTGCCT (site TTCCCGCCTAG)”, the “recombinant barcode read abundance (log10)” value is 0.543.

On to “TTCCCGCCTTGGGTTCTAACCTGTTGCCT (site TTCGCGCCTAG)”, for which the “recombinant barcode read abundance (log10)” value was found to be 0.489.

As to “TTCCCGCCTTGGGTTCTAACCTGTTGCCT (site TTCTCGCCTAG)”, the “recombinant barcode read abundance (log10)” value amounted to 0.155.

As to “TTCCGAGCTTGGGTTCTAACCTGTTGCGG (site TGTCGAGCTCC)”, the “recombinant barcode read abundance (log10)” value turned out to be 0.0848.

For the sequence “TTCCGAGCTTGGGTTCTAACCTGTTGCGG (site TTCCGAGCTCC)”, the “recombinant barcode read abundance (log10)” value was found to be 1.01.

Consider “TTCGAAACTTGGGTTCTAACCTGTTGCGT (site TCCGAGACTAC)”, for which the “recombinant barcode read abundance (log10)” value was found to be 0.221.

With “TTCGAAACTTGGGTTCTAACCTGTTGCGT (site TTCGAAACTAC)”, the “recombinant barcode read abundance (log10)” value is 1.46.

Consider “TTCGCATCTTGGGTTCTAACCTGTTGCTT (site CCAAGGCCTCG)”, for which the “recombinant barcode read abundance (log10)” value is 0.209.

For “TTCGCATCTTGGGTTCTAACCTGTTGCTT (site TTCGCATCTAA)”, the “recombinant barcode read abundance (log10)” value is 0.178.

On to “TTCGTAGCTTGGGTTCTAACCTGTTGCCT (site TTCGTAGCTAC)”, for which the “recombinant barcode read abundance (log10)” value worked out at 0.0736.

On to “TTCGTAGCTTGGGTTCTAACCTGTTGCCT (site TTCGTAGCTAG)”, for which the “recombinant barcode read abundance (log10)” value was found to be 1.22.

As to “TTCGTTGCTTGGGTTCTAACCTGTTGCCT (site ATCGTTGCTAG)”, the “recombinant barcode read abundance (log10)” value came to 0.0494.

Consider “TTCGTTGCTTGGGTTCTAACCTGTTGCCT (site CTCGTTGCTAG)”, for which the “recombinant barcode read abundance (log10)” value was determined as 0.41.

For “TTCGTTGCTTGGGTTCTAACCTGTTGCCT (site GTCGTTGCTAG)”, the “recombinant barcode read abundance (log10)” value turned out to be 0.0105.

As to “TTCGTTGCTTGGGTTCTAACCTGTTGCCT (site TTCGTTGCTAG)”, the “recombinant barcode read abundance (log10)” value is 0.302.

In the case of “TTCTAGACTTGGGTTCTAACCTGTTGCGG (site TCCTAGACTCC)”, the “recombinant barcode read abundance (log10)” value worked out at 0.189.

“TTCTAGACTTGGGTTCTAACCTGTTGCGG (site TTCTAGACTCC)”: the “recombinant barcode read abundance (log10)” value worked out at 1.94.

For the sequence “TTCTATCCTTGGGTTCTAACCTGTTGCCT (site TTCTATCCTAG)”, the “recombinant barcode read abundance (log10)” value was determined as 0.486.

For the sequence “TTCTATCCTTGGGTTCTAACCTGTTGCCT (site TTCTCTCCTAG)”, the “recombinant barcode read abundance (log10)” value is 0.286.

For the sequence “TTCTATCCTTGGGTTCTAACCTGTTGCCT (site TTCTGTCCTAG)”, the “recombinant barcode read abundance (log10)” value was 0.0469.

“TTCTATCCTTGGGTTCTAACCTGTTGCCT (site TTCTTTCCTAG)”: the “recombinant barcode read abundance (log10)” value came out at 0.094.

With “TTCTATGCTTGGGTTCTAACCTGTTGCGT (site AAGCGCTCTCA)”, the “recombinant barcode read abundance (log10)” value was found to be 0.0654.

As for “TTCTATGCTTGGGTTCTAACCTGTTGCGT (site TTCTATGCTAC)”, the “recombinant barcode read abundance (log10)” value was 0.131.

Take “TTCTGAGCTTGGGTTCTAACCTGTTGCCT (site TTCTGAGCTAG)”: the “recombinant barcode read abundance (log10)” value is 0.184.

Regarding “TTCTGAGCTTGGGTTCTAACCTGTTGCCT (site TTCTGCGCTAG)”, the “recombinant barcode read abundance (log10)” value was 0.0635.

Take “TTCTGAGCTTGGGTTCTAACCTGTTGCCT (site TTCTGGGCTAG)”: the “recombinant barcode read abundance (log10)” value turned out to be 0.115.

As to “TTCTGAGCTTGGGTTCTAACCTGTTGCCT (site TTCTGTGCTAG)”, the “recombinant barcode read abundance (log10)” value is 0.0128.
